# Data published in US9611248B2, “Chemical compounds” (Syngenta Participations AG, priority 2013, dated 2017).
# Tested on: a variety of test species
# Assay: Post-emergence herbicidal activity
# Format: in vivo
# Set-up: key to ABUTH (Abutilon theophrasti) damage score / AMARE (Amaranthus retroflexus) damage score / ALOMY (Alopecurus myosuroides) damage score / ECHCG (Echinochloa crus-galli) damage score / ZEAMX (Zea mays) damage score / SOLNI (Solanum nigrum) damage score: 0 = no damage to plant, 5 = total damage to plant
# Settings: rate 1000 g/ha, evaluated after 13 days
# Summary of the method: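 Plants grown for 8 days in pots were sprayed post-emergence with compound in acetone/water (50:50) containing 0.5% Tween 20. They were kept in a glasshouse at 24/16 °C day/night, 14 h light, 65% humidity, watered twice daily. Damage was scored after 13 days (0 none to 5 total).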
Structure (SMILES),ABUTH (Abutilon theophrasti) damage score,ALOMY (Alopecurus myosuroides) damage score,AMARE (Amaranthus retroflexus) damage score,ECHCG (Echinochloa crus-galli) damage score,SETFA (Setaria faberi) damage score,ZEAMX (Zea mays) damage score
CCCCNS(=O)(=O)c1cnc(N2C(=O)C(C)=C(OC)C2O)cc1C (stereo not drawn) [AD96],3,4,5,4,5,0
COC1=C(C)C(=O)N(c2cc(C)c(S(=O)(=O)N3CCCCC3)cn2)C1O (stereo not drawn) [AD97],0,0,0,0,0,0
COC1=C(C)C(=O)N(c2cc(C(F)(F)F)c(C(=O)NCc3ccccc3)cn2)C1O (stereo not drawn) [AD98],5,4,5,4,4,1
CCc1cc(N2C(=O)C(C)=C(OC)C2O)ncc1-c1cccc(C#N)c1 (stereo not drawn) [AD99],5,1,5,5,4,1
CCc1cc(N2C(=O)C(C)=C(OC)C2O)ncc1-c1ccccc1OC (stereo not drawn) [AD100],4,0,5,0,4,1
CCc1cc(N2C(=O)C(C)=C(OC)C2O)ncc1-c1ccoc1 (stereo not drawn) [AD102],4,3,5,3,4,1
CCc1cc(N2C(=O)C(C)=C(OC)C2O)ncc1-c1ccc(C)c([N+](=O)[O-])c1 (stereo not drawn) [AD103],4,3,5,4,4,1
CCc1cc(N2C(=O)C(C)=C(OC)C2O)ncc1-c1ccccc1[N+](=O)[O-] (stereo not drawn) [AD104],5,2,5,2,4,0
CCc1cc(N2C(=O)C(C)=C(OC)C2O)ncc1-c1ccccc1F (stereo not drawn) [AD105],5,2,5,3,4,1
CCc1cc(N2C(=O)C(C)=C(OC)C2O)ncc1-c1ccc(F)cc1F (stereo not drawn) [AD106],5,2,5,4,4,0
CCc1cc(N2C(=O)C(C)=C(OC)C2O)ncc1-c1ccccc1C (stereo not drawn) [AD107],5,2,5,2,3,1
CCc1cc(N2C(=O)C(C)=C(OC)C2O)ncc1-c1cccc(F)c1 (stereo not drawn) [AD108],5,3,5,3,5,0
COC1=C(C)C(=O)N(c2cc(C)c(-c3cccc(C#N)c3)cn2)C1O (stereo not drawn) [AD109],5,3,5,5,5,1
COC1=C(C)C(=O)N(c2cc(C)c(-c3ccccc3OC)cn2)C1O (stereo not drawn) [AD110],5,2,5,1,2,0
COC1=C(C)C(=O)N(c2cc(C)c(-c3ccc(C#N)cc3)cn2)C1O (stereo not drawn) [AD111],5,2,5,1,4,1
COC1=C(C)C(=O)N(c2cc(C)c(-c3ccc4c(c3)OCO4)cn2)C1O (stereo not drawn) [AD112],4,2,5,3,3,1
COC1=C(C)C(=O)N(c2cc(C)c(-c3ccoc3)cn2)C1O (stereo not drawn) [AD113],3,2,5,2,1,1
COC1=C(C)C(=O)N(c2cc(C)c(-c3cc(F)c(F)c(F)c3)cn2)C1O (stereo not drawn) [AD114],4,2,5,1,3,0
COC1=C(C)C(=O)N(c2cc(C)c(-c3ccc(OC)cc3)cn2)C1O (stereo not drawn) [AD115],5,2,5,1,1,1
COC1=C(C)C(=O)N(c2cc(C)c(-c3ccc([N+](=O)[O-])cc3)cn2)C1O (stereo not drawn) [AD116],2,0,5,0,1,1
COC1=C(C)C(=O)N(c2cc(C)c(-c3ccc(OC)c(OC)c3)cn2)C1O (stereo not drawn) [AD117],5,2,5,1,4,0
COC1=C(C)C(=O)N(c2cc(C)c(-c3cccc([N+](=O)[O-])c3)cn2)C1O (stereo not drawn) [AD118],5,2,5,2,4,0
